Columns and labels:
[1] = set-up: method as in manufacturers; conditions: unconjugated dyes; ref manufacturers; cited from earlier work
[2] = ref 3 (supplement); cited from earlier work
HT1080hFAP tumor = test: Static PET/CT imaging of xenografted mice; type: in vivo, BALB/c nude mice; conditions: 1.0 nmol, one mouse per compound
Protocol: For the induction of tumor xenografts, 2 × 10^6 of HT1080hFAP or HT1080 cells in 100 μL appropriate medium were subcutaneously injected in the right and left flank of each mouse (athymic female BALB/c nude), respectively. The tumors were allowed to grow until they had reached a volume of 0.3 to 0.8 cm^3. […] To evaluate ex vivo biodistribution on tumor models, 3 mouse xenografts were injected with 0.25 nmol of Gallium-67 labelled tracer (0.4 MBq) and then sacrificed after 1 h, 4 h and 1 day. For the PET/CT imaging study one xenograft-bearing mouse (tumor volume in the range 0.6–1.0 cm^3) was injected with 1.0 nmol of Gallium-68 labelled tracer (5–8 MBq). […] The images were visualized, processed, and quantified in Mediso InterView FUSION (Mediso Medical Imaging Systems, Budapest, Hungary). […] The results were expressed as percentages of injected dose per gram tissue (% ID/g). For the comparative imaging study (SPECT and in vivo fluorescence imaging), one xenograft-bearing mouse (tumor volume in the range 0.2–0.7 cm^3) was injected with 1.5–2 nmol of Gallium-67 tracer (15–17 MBq) and imaged at various time points up to 2 days p.i. […] The images were visualized, processed, and quantified in Mediso InterView FUSION (Mediso Medical Imaging Systems, Budapest, Hungary). […] The fluorescence emission was reported as photons/s/mm^2.

HT1080hFAP cells = test: Radioactive-based cell efflux study; set-up: species or system human; conditions: 2 h post-initial incubation
Protocol: For cell efflux studies, 1.0 × 10^6 HT1080hFAP cells were seeded in 6-well plates and cultivated for 48 h. On the day of the experiment, the cells in each well were washed twice with 1.5 mL of culturing medium and then incubated with the Gallium-68 labelled radiotracer at a final concentration of 1 nM/well for 1 h at 37 °C. The medium containing the unbound radiotracer was then replaced with either fresh medium or a 1 µM FAPI-46 solution in cell medium for blocking condition.
Subsequently, at specific time points, the radioactive medium was removed and collected together with two PBS/0.5% (w/v) BSA washes before adding 1 mL of fresh medium or FAPI-46 blocking solution. Finally, 2 h after the end of the first incubation, the cells were lyzed with 1 mL of 1 M NaOH. All collected fractions were measured in the γ-counter and the percentage of cell-associated activity at different time points relative to the total, corresponding to 1 h after incubation, was reported. The number of experimental replicates performed for each assay is specified in the respective figure legends.

Row | SMILES | Stokes shift [1] | λEm (nm) [1] [nm] | λEx (nm) [1] [nm] | further results
1 | CC1(C)C(=CC=C2CCCC(C=CC3=[N+](CCCCCC(=O)[O-])c4ccc(S(=O)(=O)[O-])cc4C3(C)C)=C2Oc2ccc(S(=O)(=O)[O-])cc2)N(CCCCS(=O)(=O)[O-])c2ccc(S(=O)(=O)[O-])cc21.[Na+].[Na+].[Na+].[Na+] [IRDye-800CW] | 17 | 792 | 775 | 
2 | CC(=O)NC1CCCN(O)C(=O)/C=C(/C)CCOC(=O)C(NC(C)=O)CCCN(O)C(=O)/C=C(/C)CCOC(=O)C(NC(C)=O)CCCN(O)C(=O)/C=C(/C)CCOC1=O (centres unmarked) [TAFC] |  |  |  | LogDpH7.4 [2]: -2.08 ± 0.02
3 | CC1(C)C(=CC=C2CCCC(C=CC3=[N+](CCC[N+](C)(C)C)c4ccc(S(=O)(=O)O)cc4C3(C)C)=C2Oc2ccc(CCC(=O)O)cc2)N(CCC[N+](C)(C)C)c2ccc(S(=O)(=O)O)cc21 [ZW800] | 18 | 786 | 768 | 
4 | CN(CCCN1CCN(C(=O)CN2CCN(CC(=O)[O-])CCN(CC(=O)[O-])CCN(CC(=O)[O-])CC2)CC1)c1ccc2nccc(C(=O)NCC(=O)N3CC(F)(F)C[C@H]3C#N)c2c1.[68Ga+3] [[^68Ga]Ga-FAPI-46] |  |  |  | %ID/g in FAP(+)T (PET/CT, manually drawn ROI) (HT1080hFAP tumor; 1h p.i.): 3.4 %ID/g; %ID/g in FAP(+)T (PET/CT, manually drawn ROI) (HT1080hFAP tumor; 2h p.i.): 3.1 %ID/g; Retained activity, % of the internalized fraction (HT1080hFAP cells; blocking with 1 µM FAPI-46, 1 nM): 9.4 ± 1.5%; Retained activity, % of the internalized fraction (HT1080hFAP cells; without blocking, 1 nM): 21.9 ± 1.4%
